The data set can be described thus: Agilent ZORBAX 300 SB-C18, 150 × 1 mm, 3.5 µm; A: water + 0.01% heptafluorobutyric acid; B: acetonitrile + 0.01% heptafluorobutyric acid; gradient (min/%B) 0/0 100/90. The note with it: stereoisomer not certain.
Take `Cc1ccc(N2C(=O)CC(N(CCc3ccccc3)C(=S)Nc3cccc(C)c3)C2=O)cc1` (centres undefined): the LC retention time turned out to be 17.6 min.

As to `CCCCCCCCCC(=O)NCCCCC(=O)O`, the LC retention time stood at 13.5 min. Under `Cc1nn(-c2ccc(C(=O)N3CCN(C)CC3)cc2)c(=O)c2ccccc12` stands 8.65 min. For the compound `CC(=O)c1c(C(C)=O)c(C)n(C)c1C`, the LC retention time amounted to 8.65 min. The figure for `CCCc1cc2c(cc1N)OCO2` is 9.27 min; for `NCC(O)CO` (centres undefined) it is 2.77 min; for `COc1cccc2c1NCCC2` it is 8.45 min. Under `COC(=O)CCc1c(COC(C)=O)[nH]c(C(=O)OCc2ccccc2)c1C` stands 15.1 min; under `COc1ccc2c(c1O)-c1cccc3c1C(C2)N(C)CC3` (centres undefined), 9.69 min. As for `CCc1ccc(C2CC(=O)N(N(C)C)C3=C2C(=O)CCC3)cc1` (centres undefined), the LC retention time turned out to be 15.1 min. The figure for `OCc1ccccc1CNC1CCCCC1` is 8.87 min; for `CC(=O)Nc1ccc(O)c(NC(C)=O)c1` it is 6.39 min; for `CN1CC=C(C=Cc2ccco2)CC1` it is 8.8 min. The figure for `O=C1Nc2ccccc2C1CCCO` (centres undefined) is 8.22 min. Under `S=C(NCc1ccccc1)Nc1cccc2ccccc12` stands 14.4 min; under `CC1C(=O)CC[N+](C)(C)C1C` (centres undefined), 7.63 min; under `Oc1ccc(-c2cccc(-c3ccc(O)cc3)n2)cc1`, 10.1 min.

As to `CCN(CC)C(=O)N1CCN(C)CC1`, the LC retention time was found to be 7.39 min.

As for `NCc1ccc2ncccc2c1`, the LC retention time was 7.05 min. Under `O=C(O)CCn1c2c(c3ccccc31)CCCC2` stands 14.3 min; under `O=C(NCCN1CCN(Cc2ccccc2)CC1)C(=O)Nc1ccccc1`, 9.75 min; under `COc1cc(C(=O)Nc2ccc(OCC(N)=O)cc2)cc(OC)c1OC`, 9.54 min.

`NC(=O)NCCCC(N)C(=O)O` (centres undefined): the LC retention time turned out to be 1.71 min. The figure for `O=C1CCN(c2ccccc2)N1` is 9.05 min. Under `Cc1cc(C(=O)O)nc2ccccc12` stands 5.5 min; under `c1ccc(Cn2c3ccccc3n3c(Nc4ccccc4)nnc23)cc1`, 12.7 min; under `CC(C)c1ccccc1NC(=O)c1cc2ccccc2o1`, 15.9 min. The figure for `COc1ccccc1NC(=O)c1ccc(COc2ccc3c(c2)CCC3)cc1` is 19.2 min; for `CCCNC(C)C(=O)Nc1ccccc1C` (centres undefined) it is 9.17 min; for `CC(C=Cc1ccccc1)=NNC(=O)C(C)Nc1ccc2ccccc2c1` (centres undefined) it is 16.2 min. As for `O=c1c2ccccc2nc(-c2ccccc2)n1-c1ccccc1`, the LC retention time is 13.8 min. Under `Cc1ccc(N)cc1C(=O)O` stands 7.34 min; under `CN(C)C=CC(=O)c1ccc2ccccc2c1`, 12.2 min. The figure for `Cc1ccc2cc(-c3ccncc3)[nH]c2c1` is 10.2 min; for `O=C(O)c1ccccc1CN1CCCC1` it is 7.5 min; for `CCCCN(C)C` it is 7.03 min. Under `O=C(CNc1ccc2ccccc2c1)NN=Cc1ccccc1` stands 14.8 min; under `CC(=NN=C(C)c1cccc(N)c1)c1cccc(N)c1`, 8.74 min; under `CCSc1ccc2c(c1)N(CCCN1CCN(C)CC1)c1ccccc1S2`, 12.8 min. Regarding `Nc1cc(-c2ccc(C(=O)c3ccccc3)c(N)c2)ccc1C(=O)c1ccccc1`, the LC retention time amounted to 16.4 min. Under `CC(c1ccccc1)C(N)C(=O)O` (centres undefined) stands 7.08 min. Under `C#CCN(CC)CC#C` stands 6.73 min. Consider `COc1cc(NC(C)=O)cc(OC)c1OC`, for which the LC retention time amounted to 8.42 min.

For `CNCCCc1cc(C)ccc1O`, the LC retention time was 8.44 min. As for `CC(C(=O)O)n1cccc1` (centres undefined), the LC retention time came out at 8.41 min. Take `CNCC1COCCO1` (centres undefined): the LC retention time worked out at 5.78 min. The figure for `NC(=O)c1ccccc1NC(=O)CN1CCCC1` is 7.36 min. Under `CC(N)CN(C)C` (centres undefined) stands 6.58 min; under `O=C1CCCN1CP(=O)(O)CN1CCCC1=O`, 1.46 min; under `CC(=O)NC(C)c1ccc(O)cc1` (centres undefined), 7.19 min. `C1CCC(OCCNCCOC2CCCCC2)CC1`: the LC retention time was determined as 12 min.

Take `Nc1ncccn1`: the LC retention time turned out to be 5.83 min. On to `O=C1CC(N2CCN(Cc3ccccc3)CC2)C(=O)N1Cc1ccccc1` (centres undefined), for which the LC retention time was 9.91 min. The figure for `NC1=NC(=Nc2ccc(N3CCOCC3)cc2)c2ccccc21` is 9.27 min; for `Cc1ccccc1N` it is 7.59 min; for `CN(C)c1cccc(C(=O)O)c1` it is 8.69 min. The figure for `O=C(C=Cc1ccccc1)c1ccc(O)cc1` is 12.9 min. The figure for `CCn1cc(-c2ccn[nH]2)cn1` is 7.93 min. In the case of `NCCCCCCCCCCN`, the LC retention time worked out at 7.57 min. Under `CCCCCn1c(CCC)nc2ccccc21` stands 11.3 min.

`CCOC(=O)C=CC(=O)NNC(=O)C(c1ccccc1)c1ccccc1`: the LC retention time turned out to be 12.8 min. The figure for `O=C(NN=Cc1ccncc1)c1ccccc1` is 8.3 min; for `c1nc2cc3ncc[nH]c3cc2n1` it is 7.13 min; for `CCNC(=O)C(=O)NCCc1c[nH]c2ccccc12` it is 10.8 min. Under `Nc1ccccc1CO` stands 6.62 min; under `CC(NC(=O)c1ccccc1)C(=O)O` (centres undefined), 8 min; under `O=c1[nH]c(-c2ccccc2)cn1C1CCNCC1`, 8.03 min. Under `c1ccc(CNCc2ccccc2)cc1` stands 9.71 min; under `CCOc1cc(C(=O)Nc2ccc(OC)c(OC)c2)cc(OCC)c1OCC`, 14.4 min. `NCc1ccc2[nH]c(=O)[nH]c2c1`: the LC retention time was found to be 6.29 min. Under `CCNc1ccccc1` stands 7.68 min. The figure for `CC(C)CC(C)N` (centres undefined) is 7.77 min; for `Cc1cccc(Cc2cnc[nH]2)c1C` it is 9.65 min; for `NC(=S)NN=Cc1c2ccccc2cc2ccccc12` it is 13.7 min. The figure for `O=C(CC1COc2ccccc2O1)N1CCOCC1` (centres undefined) is 10.5 min. Consider `CCCC(CCC)C(=O)NC1CCN(Cc2ccccc2)CC1`, for which the LC retention time came to 10.2 min.

Consider `CC1CCCCN1C(=O)c1ccccc1N` (centres undefined), for which the LC retention time is 11.1 min.

In the case of `O=C(C1c2ccccc2Oc2ccccc21)N1CCCc2ccccc21`, the LC retention time was found to be 17.8 min.

For the compound `CCCCC[N+]1(C)CCCC1`, the LC retention time was found to be 7.4 min. The figure for `Cc1ccc2cc(-c3cccs3)[nH]c2c1` is 16.4 min. Under `Cc1cc(C(c2cc(C)c(N)c(C)c2)c2ccco2)cc(C)c1N` stands 12.1 min; under `O=c1cccc[nH]1`, 4.79 min; under `Cc1cc(C)nc(NC(N)=NCc2cccnc2)n1`, 7.87 min. The figure for `CCCCCCCCCN(C)C` is 11.1 min; for `CN(C)CCC=C1c2ccccc2CCc2ccccc21` it is 11.8 min; for `c1cnccn1` it is 5.91 min.

On to `NC(CC(=O)O)c1ccccc1` (centres undefined), for which the LC retention time came out at 5.59 min. For `O=C(O)Cn1cnc2ccccc2c1=O`, the LC retention time worked out at 7.3 min. Under `O=C1c2ccccc2CN1CCNC(=S)NC1CCCCC1` stands 12 min; under `COc1ccc(Cc2c(O)n(C)c(=O)n(C)c2=O)c(OC)c1OC`, 11.2 min. Regarding `CNC(=O)CC1Nc2ccccc2NC1=O` (centres undefined), the LC retention time turned out to be 7.34 min. Turning to `c1ccc(CNc2ccccn2)cc1`, the LC retention time is 8.6 min. The figure for `CC(C)C(C)N` (centres undefined) is 6.98 min; for `CCn1c(=O)n(CC)c2cc(C=O)ccc21` it is 10.2 min; for `Cc1c(N)cc(N)cc1NC(=O)c1ccccc1` it is 8.28 min.

As to `CC(C)n1c2ccccc2c2ccccc21`, the LC retention time worked out at 18.2 min. The figure for `CC1(C)CC(O)N=C1c1ccccc1` (centres undefined) is 8.25 min; for `Cn1c2ccccc2c2nc3ccccc3nc21` it is 14.5 min; for `CCOC(=O)c1[nH]c(C)c(C(=O)OCc2ccccc2)c1C` it is 15.8 min. Under `O=c1[nH][nH]c(=O)c2nccnc12` stands 3.97 min.

Take `CC(C)(C)NCC(O)COc1nsnc1N1CCOCC1` (centres undefined): the LC retention time came to 9.09 min. The figure for `CC1(C)CC(NCC(=O)NC2CC(C)(C)NC(C)(C)C2)CC(C)(C)N1` is 7.71 min; for `CCCCCCCCN` it is 10.2 min. Under `CC(=O)C=CC=C(C)CCC=C(C)C` stands 17.1 min; under `CCCCNC(=O)NCCCC`, 10.5 min.

For the compound `COc1ccc2occ(C(=O)c3ccccc3C)c(=O)c2c1`, the LC retention time stood at 14.2 min. Under `CCCC(=O)C1CCNCC1` stands 7.57 min. Regarding `COc1ccc2c(c1)C(C)N1C(=O)c3ccccc3C1O2` (centres undefined), the LC retention time came out at 13.9 min. The figure for `Nc1ccc(C(=O)O)cc1N` is 5.93 min. The figure for `c1csc(CN2CCNCC2)c1` is 7.6 min. Under `CCOC(=O)CC(=O)Nc1ccc(C(=O)OC)cc1` stands 11.1 min; under `CN1CCN(C(=O)c2nn(C)c(=O)c3ccccc23)CC1`, 7.52 min. For the compound `CCNC(=S)NNC(=S)NCc1ccccc1`, the LC retention time was 10.9 min. The figure for `CC1NC(=O)N(c2cccc(N)c2)C1=O` (centres undefined) is 7.05 min.

The values above are taken from the RepoRT retention time repository.
